The values that follow are results of earlier work, collected in PubChem BioAssay AID1259409 (Chemical Carcinogenesis Research Information System (CCRIS), 2018).

The test system of this series is rodent chemically induced tumor inhibition, incidence and multiplicity. The series is described as follows: CCRIS tumor inhibitor studies.

“And” between values parts separate entries of the source, which are not always exact repeats. Identical values can stand only once.

Turning to `S=C=NCc1ccccc1`, the “tumour outcome (control, treated, inhibition, significance)” value was 9/9 (100%), 14/14 (100%), 0%, not significant (Carcinogen: 1,2-DIMETHYLHYDRAZINE, 540-73-8, Dose [Inhibitor]: 1.25 MG/G IN DIET FOR 17 WK (STUDY DURATION: 36 WK), Route [Inhibitor]: ORAL, Species: MOUSE, Strain/Sex: CF1/FEMALE, Target Tissue: Type of Lesion: LARGE INTESTINE: TUMOR, Dose [Carcinogen]: 0.7 MG IN 0.2 ML EDTA SOLUTION ADMINISTERED 8 D AFTER INHIBITOR DIET STARTED AND CONTINUED 1/WK FOR 16 WK, Promoter: NONE USED); 23/31 (74%), 20/32 (63%), 15%, not significant (Carcinogen: 2-AMINO-1-METHYL-6-PHENYLIMIDAZO[4,5-B]PYRIDINE, 105650-23-5, Dose [Inhibitor]: 0, 400 PPM IN HIGH FAT DIET FOR DURATION OF STUDY BEGINNING 1 WK PRIOR TO CARCINOGEN TREATMENT (STUDY DURATION: 31 WK), Route [Inhibitor]: ORAL, Species: RAT, Strain/Sex: SPRAGUE-DAWLEY/FEMALE, Target Tissue: Type of Lesion: MAMMARY GLAND: ADENOCARCINOMA, Dose [Carcinogen]: 100 MG/KG BW 1/2 D FOR 16 D, Promoter: NONE USED); 100%, 100%, 0%, not calculated (Carcinogen: 4-(METHYLNITROSAMINO)-1-(3-PYRIDYL)-1-BUTANONE [64091-91-4], BENZO[A]PYRENE [50-32-8], Dose [Inhibitor]: 1 UMOL/G IN DIET FOR 10 WK BEGINNING 1 WK PRIOR TO FIRST CARCINOGEN DOSE (STUDY DURATION: 28 WK), Route [Inhibitor]: ORAL, Species: MOUSE, Strain/Sex: A/J/FEMALE, Target Tissue: Type of Lesion: LUNG: TUMOR, Dose [Carcinogen]: 3 UMOL BAP + 3 UMOL NNK IN 0.1 ML COTTONSEED OIL 1X/WK FOR 8 WK (STUDY DURATION: 28 WK), Promoter: NONE); 100%, 100%, 0%, not calculated (Carcinogen: 4-(METHYLNITROSAMINO)-1-(3-PYRIDYL)-1-BUTANONE [64091-91-4], BENZO[A]PYRENE [50-32-8], Dose [Inhibitor]: 6 UMOL IN 0.1 ML COTTONSEED OIL 1/WK FOR 8 WK 2 HR PRIOR TO EACH CARCINOGEN DOSE (STUDY DURATION: 16 WK), Route [Inhibitor]: GAVAGE, Species: MOUSE, Strain/Sex: A/J/FEMALE, Target Tissue: Type of Lesion: LUNG: TUMOR, Dose [Carcinogen]: 3 UMOL BAP + 3 UMOL NNK IN 0.1 ML COTTONSEED OIL 1X/WK FOR 8 WK (STUDY DURATION: 16 WK), Promoter: NONE); 100%, 100%, 0%, not significant (Carcinogen: 4-(METHYLNITROSAMINO)-1-(3-PYRIDYL)-1-BUTANONE, 64091-91-4, Dose [Inhibitor]: 0, 1 UMOL/G DIET FOR 15 WK BEGINNING 1 WK POST CARCINOGEN DOSE (STUDY DURATION: 16 WK), Route [Inhibitor]: ORAL, Species: MOUSE, Strain/Sex: STRAIN-A/FEMALE, Target Tissue: Type of Lesion: LUNG: ADENOMA, Dose [Carcinogen]: 10 UMOL ONCE, Promoter: NONE USED); 100%, 100%, 0%, not significant (Carcinogen: 4-(METHYLNITROSAMINO)-1-(3-PYRIDYL)-1-BUTANONE, 64091-91-4, Dose [Inhibitor]: 0, 3 UMOL/G DIET FOR 15 WK BEGINNING 1 WK POST CARCINOGEN DOSE (STUDY DURATION: 16 WK), Route [Inhibitor]: ORAL, Species: MOUSE, Strain/Sex: STRAIN-A/FEMALE, Target Tissue: Type of Lesion: LUNG: ADENOMA, Dose [Carcinogen]: 10 UMOL ONCE, Promoter: NONE USED). Moreover, the “tumour outcome (control, treated, inhibition, significance)” value was 100%, 100%, 0% (Carcinogen: 4-(METHYLNITROSAMINO)-1-(3-PYRIDYL)-1-BUTANONE, 64091-91-4, Dose [Inhibitor]: 0, 5 UMOL 1/D FOR 4 D ADMINISTERED PRIOR TO CARCINOGEN DOSE (STUDY DURATION: 116 D), Route [Inhibitor]: GAVAGE, Species: MOUSE, Strain/Sex: STRAIN-A, Target Tissue: Type of Lesion: LUNG: ADENOMA, Dose [Carcinogen]: 10 UMOL IN SALINE ADMINISTERED 2 HR POST LAST AGENT DOSE, Promoter: NONE USED); 100%, 100%, 0%, not significant (Carcinogen: 4-(METHYLNITROSAMINO)-1-(3-PYRIDYL)-1-BUTANONE, 64091-91-4, Dose [Inhibitor]: 0, 5 UMOL/D FOR 4 CONSECUTIVE DAYS (STUDY DURATION: 17 WK), Route [Inhibitor]: GAVAGE, Species: MOUSE, Strain/Sex: STRAIN-A/FEMALE, Target Tissue: Type of Lesion: LUNG: ADENOMA, Dose [Carcinogen]: 10 UMOL ONCE 2 HR POST LAST AGENT DOSE, Promoter: NONE USED); 30/30 (100%), 30/30 (100%), 0% (Carcinogen: 4-(METHYLNITROSAMINO)-1-(3-PYRIDYL)-1-BUTANONE, 64091-91-4, Dose [Inhibitor]: 5 UMOL/D FOR 4 CONSECUTIVE DAYS (STUDY DURATION: 16 WK), Route [Inhibitor]: GAVAGE, Species: MOUSE, Strain/Sex: STRAIN-A/FEMALE, Target Tissue: Type of Lesion: LUNG: ADENOMA, Dose [Carcinogen]: 10 UMOL ONCE 2 HR POST LAST AGENT DOSE, Promoter: NONE USED); 100%, 100%, 0%, not significant (Carcinogen: 4-(N-NITROSOMETHYLAMINO)-1-(3-PYRIDYL)-1-BUTANONE, 64091-91-4, Dose [Inhibitor]: 0, 5 UMOL/D FOR 4 CONSECUTIVE DAYS (STUDY DURATION: 16.5 WK), Route [Inhibitor]: GAVAGE, Species: MOUSE, Strain/Sex: STRAIN-A/FEMALE, Target Tissue: Type of Lesion: LUNG: ADENOMA, Dose [Carcinogen]: 10 UMOL ONCE 2 HR POST LAST AGENT DOSE, Promoter: NONE USED); 100%, 100%, 0%, not significant (Carcinogen: 4-METHYLNITROSAMINO)-1-(3-PYRIDYL)-1-BUTANONE, 64091-91-4, Dose [Inhibitor]: 0, 5 UMOL 1/D FOR 4 D ADMINISTERED PRIOR TO CARCINOGEN TREATMENT (STUDY DURATION: 116 D), Route [Inhibitor]: GAVAGE, Species: MOUSE, Strain/Sex: STRAIN A, Target Tissue: Type of Lesion: LUNG: ADENOMA, Dose [Carcinogen]: 10 UMOL ONCE 2 HR AFTER FINAL DOSE OF INHIBITOR, Promoter: NONE USED); 100%, 63%, 37%, p<0.001 (Carcinogen: 7,12-DIMETHYLBENZ[A]ANTHRACENE, 57-97-6, Dose [Inhibitor]: 0.017 MMOL/G IN DIET BEGINNING 1 WK AFTER CARCINOGEN ADMINISTRATION (STUDY DURATION: 28 WK), Route [Inhibitor]: ORAL, Species: RAT, Strain/Sex: SPRAGUE-DAWLEY/FEMALE, Target Tissue: Type of Lesion: MAMMARY GLAND: TUMOR, Dose [Carcinogen]: 12 MG DMBA IN 1.0 ML OLIVE OIL ONCE, Promoter: NONE USED). Moreover, the “tumour outcome (control, treated, inhibition, significance)” value reads like this: (Carcinogen: 7,12-DIMETHYLBENZ[A]ANTHRACENE, 57-97-6, Dose [Inhibitor]: 5.0 MG/G DIET AT AGE 9 WK SIMULTANEOUSLY WITH CARCINOGEN, 3/WK FOR 4 WK (STUDY DURATION: 20 WK), Route [Inhibitor]: ORAL, Species: MOUSE, Strain/Sex: ICR/FEMALE, Target Tissue: Type of Lesion: LUNG: ADENOMA, Dose [Carcinogen]: 0.05 MG/G DIET AT AGE 9 WK, 3/WK FOR 4 WK, Promoter: NONE USED) 95%, 93%, 2%, not significant; (Carcinogen: 7,12-DIMETHYLBENZ[A]ANTHRACENE, 57-97-6, Dose [Inhibitor]: 5 MG/G DIET AT AGE 9 WK SIMULTANEOUSLY WITH CARCINOGEN, 3/WK FOR 6 WK (STUDY DURATION: 20 WK), Route [Inhibitor]: ORAL, Species: MOUSE, Strain/Sex: ICR/FEMALE, Target Tissue: Type of Lesion: FORESTOMACH: TUMOR, Dose [Carcinogen]: 0.05 MG/G DIET AT AGE 9 WK, 3/WK FOR 4 WK, Promoter: NONE USED) 87%, 5%, 94%, p<0.01; (Carcinogen: 7,12-DIMETHYLBENZ[A]ANTHRACENE, 57-97-6, Dose [Inhibitor]: 25 MG ONCE 2 HR BEFORE DMBA TREATMENT (STUDY DURATION: 18 WK), Route [Inhibitor]: INTRAGASTRIC, Species: RAT, Strain/Sex: SPRAGUE-DAWLEY/FEMALE, Target Tissue: Type of Lesion: MAMMARY GLAND: TUMOR, Dose [Carcinogen]: 12 MG IN 1 ML OLIVE OIL AT AGE 7 WK 2 HR AFTER AGENT TREATMENT, Promoter: NONE USED) 77%, 54%, 30%, not significant; (Carcinogen: 7,12-DIMETHYLBENZ[A]ANTHRACENE, 57-97-6, Dose [Inhibitor]: 25 MG ONCE 4 HR BEFORE DMBA TREATMENT (STUDY DURATION: 18 WK), Route [Inhibitor]: INTRAGASTRIC, Species: RAT, Strain/Sex: SPRAGUE-DAWLEY/FEMALE, Target Tissue: Type of Lesion: MAMMARY GLAND: TUMOR, Dose [Carcinogen]: 12 MG IN 1 ML OLIVE OIL AT AGE 7 WK 4 HR AFTER AGENT TREATMENT, Promoter: NONE USED) 86%, 50%, 42%, p<0.05; (Carcinogen: 7,12-DIMETHYLBENZ[A]ANTHRACENE, 57-97-6, Dose [Inhibitor]: 50 MG ONCE 2 HR BEFORE DMBA TREATMENT (STUDY DURATION: 18 WK), Route [Inhibitor]: INTRAGASTRIC, Species: RAT, Strain/Sex: SPRAGUE-DAWLEY/FEMALE, Target Tissue: Type of Lesion: MAMMARY GLAND: TUMOR, Dose [Carcinogen]: 12 MG IN 1 ML OLIVE OIL AT AGE 7 WK 2 HR AFTER AGENT TREATMENT, Promoter: NONE USED) 77%, 8%, 90%, p<0.001; (Carcinogen: 7,12-DIMETHYLBENZ[A]ANTHRACENE, 57-97-6, Dose [Inhibitor]: 50 MG ONCE 4 HR AFTER DMBA TREATMENT (STUDY DURATION: 18 WK), Route [Inhibitor]: INTRAGASTRIC, Species: RAT, Strain/Sex: SPRAGUE-DAWLEY/FEMALE, Target Tissue: Type of Lesion: MAMMARY GLAND: TUMOR, Dose [Carcinogen]: 12 MG IN 1 ML OLIVE OIL AT AGE 7 WK 4 HR BEFORE AGENT TREATMENT, Promoter: NONE USED) 71%, 62%, 13%, not significant. Moreover, the “tumour outcome (control, treated, inhibition, significance)” value (Carcinogen: 7,12-DIMETHYLBENZ[A]ANTHRACENE, 57-97-6, Dose [Inhibitor]: 50 MG ONCE 4 HR BEFORE DMBA TREATMENT (STUDY DURATION: 18 WK), Route [Inhibitor]: INTRAGASTRIC, Species: RAT, Strain/Sex: SPRAGUE-DAWLEY/FEMALE, Target Tissue: Type of Lesion: MAMMARY GLAND: TUMOR, Dose [Carcinogen]: 12 MG IN 1 ML OLIVE OIL AT AGE 7 WK 4 HR AFTER AGENT TREATMENT, Promoter: NONE USED) is 100%, 21%, 79%, p<0.001 and 85%, 23%, 73%, p<0.01.
